PubChem BioAssay AID1259411 (Chemical Carcinogenesis Research Information System (CCRIS), 2018)
Calls of active or inactive are those of the source. How the calls were made is not given here.

Test system: rodent carcinogenicity bioassays, tumor incidence
Experiment: CCRIS carcinogenicity studies
How it was run: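 NCI-built, expert-reviewed records of carcinogenicity and related test outcomes (mutagenicity, tumor promotion/inhibition) compiled from published and report sources, historical span 1985-2011, not updated.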

COP(=O)(OC)OC(=CCl)c1cc(Cl)c(Cl)cc1Cl
carcinogen call (Species: MOUSE, Strain/Sex: B6C3F1/MALE, Route: ORAL, Dose: 0, 8000, 16000 PPM IN DIET, Dose: 0, 8000, 16000 PPM IN DIET, Tumor Site: Type of Lesion: LIVER: NEOPLASTIC NODULE OR HEPATOCELLULAR CARCINOMA): active; positive
carcinogen call (Species: RAT, Strain/Sex: OSBORNE-MENDEL/MALE, Route: ORAL, Dose: 0, 4250, 8500 PPM IN DIET, TWA, Dose: 0, 4250, 8500 PPM IN DIET, TWA): inactive; negative

O=NN1CCCCC1
carcinogen call (Species: HAMSTER, Route: SUBCUTANEOUS, Tumor Site: Type of Lesion: TRACHEA, NASAL CAVITY, ESOPHAGUS, FORESTOMACH, LUNG, LIVER, Tumor Site: Type of Lesion: TRACHEA, NASAL CAVITY, ESOPHAGUS, FORESTOMACH, LUNG, LIVER): active; positive
carcinogen call (Species: HAMSTER, Strain/Sex: SYRIAN/MALE,FEMALE, Route: ORAL, Dose: 0.006, 0.025, 0.05% IN DRINKING WATER FOR LIFE, Dose: 0.006, 0.025, 0.05% IN DRINKING WATER FOR LIFE, Tumor Site: Type of Lesion: RESPIRATORY TRACT (LARYNX, PHARYNX, TRACHEA): PAPILLOMA, EPIDERMOID CARCINOMA, PAPILLARY POLYP, FORESTOMACH: PAPILLOMA): active; positive
carcinogen call (Species: MONKEY, Route: ORAL, Tumor Site: Type of Lesion: LIVER): active; positive
carcinogen call (Species: MOUSE, Route: INTRAPERITONEAL, Tumor Site: Type of Lesion: LUNG): active; positive
carcinogen call (Species: MOUSE, Route: ORAL, Tumor Site: Type of Lesion: FORESTOMACH, LIVER, LUNG, Tumor Site: Type of Lesion: FORESTOMACH, LIVER, LUNG): active; positive
carcinogen call (Species: RAT, Route: INTRAVENOUS, Tumor Site: Type of Lesion: ESOPHAGUS, PHARYNX): active; positive
carcinogen call (Species: RAT, Route: ORAL, Tumor Site: Type of Lesion: ESOPHAGUS, LIVER): active; positive
carcinogen call (Species: RAT, Route: SUBCUTANEOUS, Tumor Site: Type of Lesion: ESOPHAGUS, NASAL CAVITY): active; positive
carcinogen call (Species: RAT, Strain/Sex: F344/FEMALE, Route: ORAL, Dose: 0.9 MILLIMOLAR SOLUTION (100 MG/L) IN DRINKING WATER 5/WK FOR 28 WK, Tumor Site: Type of Lesion: ESOPHAGUS: PAPILLOMA, CARCINOMA): active; positive

COc1cc(S(=O)(=O)O)c(C)cc1N=Nc1c(O)ccc2cc(S(=O)(=O)O)ccc12
carcinogen call (Species: MOUSE, Strain/Sex: CD-1/FEMALE, Route: ORAL, Dose: 0, 0.37, 1.39, 5.19% IN DIET FOR LIFE TO OFFSPRING OF ANIMALS ADMINISTERED THE SAME DOSES DURING BREEDING, GESTATION AND, Dose: 0, 0.37, 1.39, 5.19% IN DIET FOR LIFE TO OFFSPRING OF ANIMALS ADMINISTERED THE SAME DOSES DURING BREEDING, GESTATION AND): inactive; negative
carcinogen call (Species: MOUSE, Strain/Sex: CD-1/MALE, Route: ORAL, Dose: 0, 0.37, 1.39, 5.19% IN DIET FOR LIFE TO OFFSPRING OF ANIMALS ADMINISTERED THE SAME DOSES DURING BREEDING, GESTATION AND, Dose: 0, 0.37, 1.39, 5.19% IN DIET FOR LIFE TO OFFSPRING OF ANIMALS ADMINISTERED THE SAME DOSES DURING BREEDING, GESTATION AND): inactive; negative
carcinogen call (Species: MOUSE, Strain/Sex: HAM/ICR/FEMALE, Route: ORAL, Dose: 0, 0.37, 1.39, 5.19% IN DIET FOR LIFE TO OFFSPRING OF ANIMALS ADMINISTERED THE SAME DOSES DURING BREEDING, GESTATION AND, Dose: 0, 0.37, 1.39, 5.19% IN DIET FOR LIFE TO OFFSPRING OF ANIMALS ADMINISTERED THE SAME DOSES DURING BREEDING, GESTATION AND): inactive; negative
carcinogen call (Species: MOUSE, Strain/Sex: HAM/ICR/MALE, Route: ORAL, Dose: 0, 0.37, 1.39, 5.19% IN DIET FOR LIFE TO OFFSPRING OF ANIMALS ADMINISTERED THE SAME DOSES DURING BREEDING, GESTATION AND, Dose: 0, 0.37, 1.39, 5.19% IN DIET FOR LIFE TO OFFSPRING OF ANIMALS ADMINISTERED THE SAME DOSES DURING BREEDING, GESTATION AND): inactive; negative
carcinogen call (Species: RAT, Strain/Sex: SPRAGUE-DAWLEY/FEMALE, Route: ORAL, Dose: 0, 0.37, 1.39, 5.19% OF DIET BEGINNING WITH PARENTAL GENERATION AND CONTINUING WITH THE OFFSPRING FOLLOWING WEANING (STU, Dose: 0, 0.37, 1.39, 5.19% OF DIET BEGINNING WITH PARENTAL GENERATION AND CONTINUING WITH THE OFFSPRING FOLLOWING WEANING (STU): inactive; negative
carcinogen call (Species: RAT, Strain/Sex: SPRAGUE-DAWLEY/MALE, Route: ORAL, Dose: 0, 0.37, 1.39, 5.19% OF DIET BEGINNING WITH PARENTAL GENERATION AND CONTINUING WITH THE PUPS FOLLOWING WEANING (STUDY DU, Dose: 0, 0.37, 1.39, 5.19% OF DIET BEGINNING WITH PARENTAL GENERATION AND CONTINUING WITH THE PUPS FOLLOWING WEANING (STUDY DU): inactive; negative

C
carcinogen call (Species: MOUSE, Strain/Sex: NMRI/FEMALE, Route: INHALATION, Dose: 0, 7.4 MG/M3 18 HR/D 5 D/WK FOR 4 MO INCREASED TO 12.2 MG/M3 FOR 9.5 MO FOLLOWED BY CLEAN AIR FOR 9.5 MO (STUDY DURATION): inactive; negative
carcinogen call (Species: RAT, Strain/Sex: F344/FEMALE, Route: INHALATION, Dose: 0, 2.5, 6.5 MG/M3 IN AIR 16 HR/D 5 D/WK FOR 24 MO (STUDY DURATION: 25.5 MO), Dose: 0, 2.5, 6.5 MG/M3 IN AIR 16 HR/D 5 D/WK FOR 24 MO (STUDY DURATION: 25.5 MO), Tumor Site: Type of Lesion: LUNG: BENIGN OR MALIGNANT NEOPLASM): active; positive
carcinogen call (Species: RAT, Strain/Sex: F344/FEMALE, Route: INHALATION, Dose: 0, 2.5, 6.5 MG/M3 OF AIR 16 HR/D 5 D/WK FOR UP TO 24 MO (STUDY DURATION: LIFE SPAN), Dose: 0, 2.5, 6.5 MG/M3 OF AIR 16 HR/D 5 D/WK FOR UP TO 24 MO (STUDY DURATION: LIFE SPAN), Tumor Site: Type of Lesion: LUNG: MALIGNANT TUMOR): active; positive
carcinogen call (Species: RAT, Strain/Sex: F344/MALE, Route: INHALATION, Dose: 0, 2.5, 6.5 MG/M3 IN AIR 16 HR/D 5 D/WK FOR 24 MO (STUDY DURATION: 25.5 MO), Dose: 0, 2.5, 6.5 MG/M3 IN AIR 16 HR/D 5 D/WK FOR 24 MO (STUDY DURATION: 25.5 MO)): inactive; negative
carcinogen call (Species: RAT, Strain/Sex: F344/MALE, Route: INHALATION, Dose: 0, 2.5, 6.5 MG/M3 OF AIR 16 HR/D 5 D/WK FOR UP TO 24 MO (STUDY DURATION: LIFE SPAN), Dose: 0, 2.5, 6.5 MG/M3 OF AIR 16 HR/D 5 D/WK FOR UP TO 24 MO (STUDY DURATION: LIFE SPAN), Tumor Site: Type of Lesion: LUNG: MALIGNANT TUMOR): active; positive
carcinogen call (Species: RAT, Strain/Sex: WISTAR/FEMALE, Route: INHALATION, Dose: 0, 7.4 MG/M3 18 HR/D 5 D/WK FOR 4 MO INCREASED TO 12.2 MG/M3 FOR 20 MO FOLLOWED BY CLEAN AIR FOR 6 MO (STUDY DURATION: 3, Tumor Site: Type of Lesion: LUNG: TUMOR): active; positive

CCCl
carcinogen call (Species: MOUSE, Strain/Sex: B6C3F1/FEMALE, Route: INHALATION, Dose: 0, 15000 PPM IN AIR 6 HR/D 5 D/WK FOR 100 WK (STUDY DURATION: 100 WK), Tumor Site: Type of Lesion: LIVER: HEPATOCELLULAR CARCINOMA, LIVER: HEPATOCELLULAR ADENOMA OR CARCINOMA, UTERUS: CARCINOMA, Tumor Site: Type of Lesion: LIVER: HEPATOCELLULAR CARCINOMA, LIVER: HEPATOCELLULAR ADENOMA OR CARCINOMA, UTERUS: CARCINOMA): active; positive
carcinogen call (Species: Mouse, Strain/Sex: B6C3F1/Female (50/Group), Route: Inhalation, Dose: 0, 15,000 ppm 6 hr/d, 5 d/wk for 100 wk, Tumor Site: Type of Lesion: Uterus: carcinoma (2% vs 90%, p<10-8), Uterus: lymphoma (2% vs 14%, p=0.03), Liver: adenoma and carcinoma (6% vs 17%, p=, Tumor Site: Type of Lesion: Uterus: carcinoma (2% vs 90%, p<10-8), Uterus: lymphoma (2% vs 14%, p=0.03), Liver: adenoma and carcinoma (6% vs 17%, p=): active; positive
carcinogen call (Species: Mouse, Strain/Sex: B6C3F1/Male (50/Group), Route: Inhalation, Dose: 0, 15,000 ppm 6 hr/d, 5 d/wk for 100 wk): inactive; negative
carcinogen call (Species: RAT, Strain/Sex: F344/FEMALE, Route: INHALATION, Dose: 0, 15000 PPM IN AIR 6 HR/D 5 D/WK FOR 102 WK (STUDY DURATION: 102 WK), Tumor Site: Type of Lesion: BRAIN: ASTROCYTOMA): equivocal
carcinogen call (Species: RAT, Strain/Sex: F344/MALE, Route: INHALATION, Dose: 0, 15000 PPM IN AIR 6 HR/D 5 D/WK FOR 102 WK (STUDY DURATION: 102 WK), Tumor Site: Type of Lesion: SKIN: TRICHOEPITHELIOMA, SEBACEOUS GLAND ADENOMA OR BASAL CELL CARCINOMA): equivocal
carcinogen call (Species: Rat, Strain/Sex: F344/Female (50/Group), Route: Inhalation, Dose: 0, 15,000 ppm 6 hr/d, 5 d/wk for 102 wk): inactive; negative
carcinogen call (Species: Rat, Strain/Sex: F344/Male (50/Group), Route: Inhalation, Dose: 0, 15,000 ppm 6 hr/d, 5 d/wk for 102 wk): inactive; negative
